Reference: US10344037B2, “Use of the FL-one hundred eighteen core chemical structure platform to generate FL-one hundred eighteen derivatives for treatment of human disease” (priority 2014, dated 2019)

How the values were obtained:
Hdm2/HdmX complex = Hdm2/HdmX complex (Homo sapiens, UniProt O15151+Q00987); assay: In vitro ubiquitination assay with recombinant proteins
Procedure: The ubiquitinated p53 (Ub-p53) bands are detected as shown.
The reaction products are resolved by SDS-PAGE followed by immunoblotting with p53 antibody DO-1. For HdmX ubiquitination in vitro, reactions are performed in a 50-μl volume. After completion of the reactions, 10 μl is used for direct immunoblotting to reveal HdmX ubiquitination (a smearing pattern) with FLAG antibody. 40 μl reactions are used for denaturing with 1% SDS followed by dilution with 800 μl of 20 mM Tris, pH7.5, 0.5% NP40, and 120 mM NaCl. The processed reaction products are used for immunoprecipitation with ubiquitin antibody followed by immunoblotting for FLAG-HdmX using anti-FLAG antibodies.

[1] = tested on: HCT116 colon cancer cells; assay: cells; assay type: cell-based, human
Procedure: (§2) Cancer cell viability and growth are determined by MTT assay. […] MTT is used as a colorimetric substrate for measuring cell viability and growth. When cell growth is inhibited, there is an alteration of cellular redox activity, and thus rendering cells unable to reduce the MTT dye. Cells are seeded in 96 well plates overnight and then treated with or without a compound/drug in the presence or absence of an protein molecule inhibitor (e.g. ABCG2 inhibitor ko143) for 48-72 hours, MTT is added to a final concentration 0.5 mg/ml. Cells are continuously incubated in a 5% CO2 incubator at 37° C. for 4 h with MTT and then lysed with a cell lysis buffer (20% SDS, 50% N,N-dimethylformamide, pH 4.7), 100 μl per well, for 4 h in the incubator. Subsequently, cell absorbance in each well is measured at 570 nm with an Ultra Microplate Reader (Bio-Tek Instruments). Results are reported as the mean±SD from 3-5 independent assays at each point. […] After 72 hours, media is removed and cells are harvested using 0.5 ml of 0.25% Trypsin-EDTA. Cells are counted and viability is analyzed on a Vi-CELL XR Cell Viability Analyzer (Beckman Coulter).

in vivo = conditions: weekly×4
Procedure: Individual tumor curves derived from individual mice are shown. A. Mice with FaDu head-&-neck tumor xenografts were first treated with irinotecan at its maximum tolerated dose (MTD, 100 mg/kg, IP) weekly for 4-5 times (black arrow). […] B. Mice with FaDu tumor xenografts were first treated with topotecan at its MTD (4 mg/kg, IP) via daily×5 schedules for 4 cycles (each black arrow is one cycle). […] C. Mice with SW620 CRC xenografts were first treated with irinotecan at its MTD (IP, weekly×4, black arrow). […] D. Mice with SW620 xenograft tumors were first treated with topotecan at its MTD.

p53 = assay: Western blot for p53 expression in colon cancer cells with wild type p53; assay type: cell-based, human
Procedure: Actin is an internal control for total protein loading.
(§3) After the lysates are cleared by centrifugation at 15,000 g for 20 minutes at 4° C., the total protein is determined using Bio-Rad protein assay solution. Up to 50 μg of total protein is denatured in 2×SDS sample loading buffer for 5 minutes at 95° C., separated on 10-15% SDS-PAGE gels, and electrotransferred to the Pure Nitrocellulose Membrane (Bio-Rad, Hercules, Calif.) using semi-dry electrophoretic transfer. After the nonspecific binding sites on the membranes are blocked with 5% skim milk in TBS-T (20 mM Tris-HCl pH 7.5, 0.137 M NaCl, and 0.01% Tween 20) for 3 hours at room temperature with constant shaking, the membranes are incubated in TBS-T containing the relevant primary antibody (1: 500-1000) and 5% BSA overnight at 4° C. After washing with TB S-T three times, the membrane is incubated in 5% skim milk in TBS-T buffer containing the appropriate secondary anti-IgG antibody (1:5000) at room temperature for 1 h with constant shaking. The protein of interest is detected using Western Lightning®-ECL (Perkin Elmer, Waltham, Mass.) and visualized by exposure for various times (5-60 seconds). […]

[2] = tested on: colorectal cancer PDX (11124, 14528); assay: Colorectal cancer patient-derived xenografts (PDX); design: species or system SCID mice; conditions: mouse, in vivo
Description: Individual PDX were subcutaneously inoculated into SCID mice. […] Individual PDX tumor curves derived from individual mice are shown. […] Two examples of colorectal cancer PDX (11124, 14528) are shown.

ABCG2 in HCT116-A2 cells = assay: Growth inhibition after ABCG2 shRNA silencing; assay type: cell-based, human; conditions: 72 hours
Procedure: Actin is internal control. B and C. […] Cells at sub-confluence are infected with lentiviral particles containing nonsense shRNA (ns), or AGCG2-specific shRNA (sh1, sh2) to silence ABCG2 expression in the cells. […] Viability for each dose was determined using a ViCELL XR cell viability analyzer and normalized to that of DMSO control. Error bars=SEM, n=3 independent experiments. Data are plotted graphically and EC50 values are calculated using GraphPad Prism 6.0.

[3] = tested on: DU145 prostate cancer cells; assay: Cell growth inhibition, cell counting after 72 h; assay type: cell-based, human
Description: Each dot is the mean±SD derived from 3 independent assays.
Irinotecan and topotecan are the only two analogs derived from direct modification of camptothecin (CPT) that are approved by the FDA for cancer treatment in clinical practice. […] In this regard, we obtain one DU145 parental prostate cancer cell line and two DU145-derived sub-lines with Top1 mutations (DU145-RC0.1, DU145-RC1).

[4] = tested on: IAP and Bcl-2 family genes; assay: Affymetrix Human Gene 1.0 ST Array of FL118-treated PC3 cells; conditions: DNA microarray
cancer cells = assay: Cell growth and viability, MTT; assay type: cell-based, human; conditions: 72 hours
Procedure: Actin is an internal control for equal protein loading. […] Subconfluent cancer cells as shown are treated with a series of concentrations of crolibulin as shown (0-100 μM) for 72 hours. Cell growth and viability are determined via MTT assay. Each curve is the mean±SD from 4 independent assays.
Crolibulin is an anticancer drug that targets endothelial cells of the cancer vasculature system. Therefore, crolibulin is considered as a vascular disrupt agent (VDA).

[5] = Cardiac measurements by ultrasound; assay type: in vivo, SCID mice; conditions: IV 0.75 mg/kg (½MTD), q2d×4
Procedure: Cardiac imaging is performed using a 55 MHz ultrasound transducer system. Calculations are made based on the Simpson's method. Three short axis images and one long axis image of the left ventricle are acquired and used to determine cardiac output, ejection fraction, and stroke volume. […] Measurements are made with a 55 MHz ultrasound probe. Step (a): cardiac output is a measurement of the total volume of blood pumped by the left ventricle per minute. Step (b) ejection fraction measures the percentage of blood that leaves the left ventricle every time it contracts. Step (c) stroke volume measures the volume of blood pumped from the left ventricle with each contraction.
On the other hand, we have analyzed a comprehensive panel of chemical parameters to determine the potential chemical toxicity including renal and liver toxicity using blood samples from vehicle-treated SCID mice and FL118-treated mice. The analyzed parameters include glucose (GLU), blood urea nitrogen (BUN), creatinine (CREA), inorganic phosphate (PHOS), calcium (CA), total protein (TP), albumin (ALB), alanine aminotransferase (ALT), alkaline phosphatase (ALKP), Gamma-glutamyl transferase (GGT), total bilirubin (TBIL), cholesterol (CHOL), and amylase (AMYL), lipase (LIPA).

HCT116-A2 cells = assay: cells; assay type: cell-based, human
Procedure: as §2

HdmX, Hdm2 = assay: HdmX and Hdm2 protein and mRNA levels in HCT-8 cells
Procedure: Rescue of HdmX degradation by proteasome inhibitor MG132. […] Cell lysates are then analyzed by immunoblotting of HdmX. Actin expression is used as an internal control.

HCT116-NS6 cells = assay: cells; assay type: cell-based, human
Procedure: as §2

PARP cleavage = conditions: p53 null versus p53 wild type HCT116
Procedure: Actin is used as internal controls for total protein loading.
as §3

HCT-8 colon cancer cells = assay: Cell growth inhibition, 72 hours; assay type: cell-based, human; conditions: HCT-8 cells
Procedure: (§1) Cell growth is then measured and the data are plotted as percentage of growth inhibition (no drug treatment was set at 0%). […] C. […] Representative cancer cell images were taken with a digital camera under phase-contrast microscope.

HCT116-G7 cells = assay: cells; assay type: cell-based, human
Procedure: as §2

survivin promoter = assay: Survivin promoter-luciferase activity assay; assay type: cell-based, human
Procedure: Cancer cells are seeded in 48-well plates at about 50% confluent overnight in complete cell culture medium. Cells are either stably transfected with the pLuc-4080 survivin promoter-luciferase construct or transiently transfected with relevant luciferase reporter vectors. For transient transfection, 245 ng of targeting luciferase reporter construct plus 5 ng of internal control vector, pRK-tk in 30 μl serum-free DMEM, is mixed in a 1.5 ml tube containing 30 μl serum-free DMEM containing 0.4 μl Lipofectamine™ 2000. After incubation at room temperature for 20-25 minutes, the DNA/Lipofectamine complex is added to each well of 48-well plates, which already contain 300 μl corresponding complete growth medium in each well. […] Cells are further incubated for an additional 24-48 hours in a normoxia and/or hypoxia condition, followed by processing luciferase assays. For luciferase assay, a Dual-Luciferase Reporter Assay System (Promega) is used. Cells in 48-well plates are washed with PBS and lysed with 80 μl 1× passive lysis buffer on a shaker for up to 1 hour at 4° C. Twenty μl cell lysate per well is used to measure the Firefly and Renilla luciferase activity in triplicates in a Luminometer by subsequently adding 20 μl luciferase assay reagent and 20 μl Stop-Glo reagent. […]

HCT-8 cells = assay: Colony formation after 2 h or 6 h drug treatment; assay type: cell-based, human; conditions: 2 h or 6 h treatment, 2 weeks growth
Procedure: Subconfluent SW620, HCT-8, and HCT-116 cells were lysed and analyzed for the expression of MDR1 and ABCG2 using western blots (WB). Actin is the internal control. […] Cell growth/viability was then analyzed by MTT assays. Each time point in the individual curve is the mean±SD from 3 to 5 independent assays. […] Drugs were then washed out and cells were allowed to grow in new medium without drugs for 2 weeks. Cell colonies were stained with crystal violet solution; images were digitally taken. Triplicate results are shown.
as §1

[6] = IC50 of topotecan divided by IC50 of the drug

Chain of Hdm2/HdmX complex (Q00987 whole entry): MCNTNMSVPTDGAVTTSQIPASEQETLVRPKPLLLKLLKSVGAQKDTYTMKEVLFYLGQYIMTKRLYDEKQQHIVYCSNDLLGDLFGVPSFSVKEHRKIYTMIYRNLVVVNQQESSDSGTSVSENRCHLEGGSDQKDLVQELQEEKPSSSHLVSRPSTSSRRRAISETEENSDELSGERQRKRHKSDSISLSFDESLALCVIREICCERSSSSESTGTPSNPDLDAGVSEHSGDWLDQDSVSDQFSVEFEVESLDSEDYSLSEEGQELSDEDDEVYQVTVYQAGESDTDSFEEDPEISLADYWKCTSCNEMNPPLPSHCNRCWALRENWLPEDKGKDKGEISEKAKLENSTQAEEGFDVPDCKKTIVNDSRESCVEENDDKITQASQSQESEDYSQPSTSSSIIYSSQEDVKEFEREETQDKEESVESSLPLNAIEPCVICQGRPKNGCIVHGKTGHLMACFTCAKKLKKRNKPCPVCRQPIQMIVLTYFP
Chain of Hdm2/HdmX complex (O15151 whole entry): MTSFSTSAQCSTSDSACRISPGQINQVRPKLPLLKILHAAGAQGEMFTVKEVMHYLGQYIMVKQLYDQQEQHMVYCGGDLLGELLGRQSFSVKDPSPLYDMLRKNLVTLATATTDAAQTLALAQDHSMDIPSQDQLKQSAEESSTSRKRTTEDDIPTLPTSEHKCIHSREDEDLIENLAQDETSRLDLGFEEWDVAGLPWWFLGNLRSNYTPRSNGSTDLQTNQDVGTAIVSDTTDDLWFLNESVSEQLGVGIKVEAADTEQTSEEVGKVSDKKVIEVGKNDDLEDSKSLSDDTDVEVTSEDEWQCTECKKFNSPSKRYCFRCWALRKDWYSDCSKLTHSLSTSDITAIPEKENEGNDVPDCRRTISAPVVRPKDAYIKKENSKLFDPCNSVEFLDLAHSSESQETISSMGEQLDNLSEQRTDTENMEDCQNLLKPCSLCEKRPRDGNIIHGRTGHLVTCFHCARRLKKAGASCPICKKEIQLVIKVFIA
Description for FaDu and SW620 tumors: Three types of human cancer xenografts are used in the studies: 1) from human head-&-neck cancer cell line (FaDu)-established xenografts; 2) from human colon cancer cell line (SW620)-established xenografts; and 3) from human acute lymphocytic leukemia cell line (EU-4)-established xenografts. All in vivo experiments use either nude or severe combined immunodeficiency (SCID) mice. Human tumor cell line-derived xenografts are initially established by subcutaneously injecting 1×10^6 cultured cancer cells. The derived tumors are then passed several generations in mice by transplanting 40-50 mg non-necrotic tumor mass via a trocar after the xenograft tumor reached ˜1000 mm^3. Treatment is initiated 7 days after tumor transplantation when the tumor reached 200-250 mm^3, at which time the treatment was designated as Day 0. Six to 12-week-old female SCID mice used in the studies. All animal experiments are performed in accordance with IACUC-approved animal protocols. Mice were housed 5 mice per cage with water and food ad libitum.

Q: With `CC[C@@]1(O)C(=O)OCc2c1cc1n(c2=O)Cc2cc3cc4c(cc3nc2-1)OCO4` [FL118] as the molecule, how does the “Hdm2-mediated HdmX ubiquitination in vitro” value (Hdm2/HdmX complex) read?
A: stimulates Hdm2-mediated HdmX ubiquitination in a concentration-dependent manner

Q: And the “Mdm2-MdmX mediated p53 polyubiquitination in vitro” value (Hdm2/HdmX complex)?
A: moderately inhibits

Q: What about the IC50 [1] of the same molecule?
A: 0.0477 nM

Q: And the RP [1, 6]?
A: 15.67

Q: And the MTD (in vivo; IV injection)?
A: 5 mg/kg

Q: And the body weight loss (in vivo; oral administration)?
A: Minimal Body Weight Loss

Q: What about the MTD (in vivo; oral) of the same molecule?
A: 10 mg/kg

Q: What about the p53 protein expression (p53) of the same molecule?
A: strong and rapid induction of p53 expression

Q: And the “antitumor activity on the same PDX on different mice” value [2]?
A: very similar antitumor activity to the same tumor on different SCID mice

Q: What about the “effect of silencing of ABCG2 on cell growth inhibition” value (ABCG2 in HCT116-A2 cells) of the same molecule?
A: shows no effect to FL118

Q: And the IC50 ([3]; DU-145)?
A: 4.56 nM

Q: And the “more effective than CPT, SN-38 and topotecan to inhibit cancer cell growth” value ([3]; parental Du145 cell line)?
A: 10-40 fold

Q: What about the “expression of Bcl-2 family antiapoptotic genes” value [4] of the same molecule?
A: slightly decreases Mcl-1 and Bcl-XL, and shows no effect on Bcl-2, Bcl2A1, Bcl-w, Bcl-B, Bcl2L12, Bcl2L13, Bcl-G and Bcl2L15

Q: What about the “expression of IAP family genes” value [4] of the same molecule?
A: decreases (2 fold cutoff) NAIP, cIAP2, XIAP and Bruce, and shows no effects on cIAP1, Livin and hILP2

Q: What about the “expression of proapoptotic proteins” value [4] of the same molecule?
A: increases proapoptotic proteins Bax, Bad, Bim, Hrk, and Bmf without affecting the expression of Bid, Bik, Bak and Bok

Q: What about the “sensitivity of cancer cells” value (cancer cells) of the same molecule?
A: sensitive to FL118 treatment

Q: And the “cardiac output, ejection fraction and stroke volume” value [5]?
A: no difference between vehicle control and FL118-treated SCID mice

Q: What about the IC50 (HCT116-A2 cells) of the same molecule?
A: 0.163 nM

Q: And the RP (HCT116-A2 cells; [6])?
A: 666.5

Q: And the “mRNA levels of HdmX and p21 (quantitative real time PCR)” value (HdmX, Hdm2; FL118 treatment for 8 h)?
A: does not significantly alter the mRNA levels of HdmX but increases the control gene p21 mRNA levels

Q: And the “time to HdmX downregulation after treatment” value (HdmX, Hdm2; HCT-8 cells, 100 nM, time course)?
A: ≤ 4 h

Q: What about the “proteasomal degradation of HdmX and Hdm2” value (HdmX, Hdm2; HCT-8 cells, 10 and 100 nM) of the same molecule?
A: promotes proteasomal degradation of HdmX but not Hdm2

Q: And the IC50 (HCT116-NS6 cells)?
A: 0.138 nM

Q: What about the RP (HCT116-NS6 cells; [6]) of the same molecule?
A: 40.87

Q: What about the PARP cleavage (PARP cleavage) of the same molecule?
A: more effective to induce PARP cleavage in p53 null HCT116 colon cancer cells than in p53 wild type HCT116 cells

Q: And the “more sensitive to colon cancer cells than topotecan” value (HCT-8 colon cancer cells)?
A: at least 25 time

Q: What about the IC50 (HCT116-G7 cells) of the same molecule?
A: 1.19 nM

Q: What about the RP (HCT116-G7 cells; [6]) of the same molecule?
A: 16.22

Q: What about the mouse deaths (FaDu and SW620 tumors; large tumors, stored FL118 solution, attributed to possible Tumor Lysis Syndrome) of the same molecule?
A: death of two mice on Day 37

Q: What about the “antitumor activity of stored solution” value (FaDu and SW620 tumors; ready-to-use solution stored at 4° C. for 6 months, 1.5 mg/kg weekly for 4 weeks) of the same molecule?
A: as effective as the newly formulated solution

Q: What about the “concentration that can effectively inhibit survivin promoter activity” value (survivin promoter) of the same molecule?
A: 1 to 10 nM

Q: What about the “hypoxia-induced survivin promoter activity” value (survivin promoter; HCT116 cells with full-length survivin promoter-luciferase, 24 h, hypoxia) of the same molecule?
A: abrogated by FL118 treatment

Q: What about the “more effective to inhibit colony formation than topotecan” value (HCT-8 cells) of the same molecule?
A: > 100 time
